From US20080261994A1, “CYCLOPROPANE COMPOUNDS AND PHARMACEUTICAL USE THEREOF” (Japan Tobacco Inc., priority 2003, published 2008)
pIC50: −log10 of the molar value. Where two headings read alike, the source gives them in different places.

Legend:
Format in all cases: biochemical
aggrecanase-1 = target: T1, aggrecanase-1 (Homo sapiens, UniProt O75173); experiment: Aggrecanase-1 inhibitory action (Particle Assay, GAG release from aggrecan-containing polyacrylamide particles)
T1 sequence (O75173 213-837): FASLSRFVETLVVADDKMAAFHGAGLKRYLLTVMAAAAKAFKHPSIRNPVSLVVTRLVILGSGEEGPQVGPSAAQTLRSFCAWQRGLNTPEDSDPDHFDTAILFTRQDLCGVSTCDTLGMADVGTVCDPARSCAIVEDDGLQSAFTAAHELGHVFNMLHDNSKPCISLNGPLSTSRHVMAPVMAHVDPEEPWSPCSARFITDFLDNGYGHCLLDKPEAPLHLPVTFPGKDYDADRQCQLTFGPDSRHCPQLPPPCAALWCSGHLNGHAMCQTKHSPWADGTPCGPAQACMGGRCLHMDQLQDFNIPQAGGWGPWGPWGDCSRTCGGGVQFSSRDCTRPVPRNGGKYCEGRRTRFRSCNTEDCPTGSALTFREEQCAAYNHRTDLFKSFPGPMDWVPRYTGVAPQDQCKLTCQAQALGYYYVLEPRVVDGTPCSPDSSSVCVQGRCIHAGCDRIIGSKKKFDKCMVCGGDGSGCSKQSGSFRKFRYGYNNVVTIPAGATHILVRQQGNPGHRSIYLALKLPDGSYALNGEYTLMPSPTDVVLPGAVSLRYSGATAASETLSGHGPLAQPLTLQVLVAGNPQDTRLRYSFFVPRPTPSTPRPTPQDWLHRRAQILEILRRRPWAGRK
Method in brief: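 Readout was dimethylmethylene blue absorbance (595 nm) of glycosaminoglycan liberated into supernatant, calibrated with whale chondroitin sulfate. Substrate was aggrecan in polyacrylamide particles, digested 15 h at 37° C in Tris-HCl; TC50 (μM) derived from inhibition relative to no-enzyme and no-inhibitor controls.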

Recombinant Human MMP-13 = target: T2, Recombinant Human MMP-13 (Homo sapiens, UniProt P45452); experiment: MMP-13 inhibitory activity (MMP-13 specific fluorescent substrate with quencher)
T2 construct: purchased R&D systems 511-MM
Method in brief: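 IC50 (μM) derived from % inhibition, normalised to wells without enzyme and without inhibitor, fluorescence read at 325/405 nm. Enzyme and compound preceded addition of the quenched 7-MCA…DPA substrate; Tris-HCl buffer, 25 °C for 1 h, acetic-acid stop.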

MMP-1 = target: T3, MMP-1 (Homo sapiens, UniProt P03956); experiment: MMP-1 inhibitory action (Type I collagen Activity Measurement kit, FITC-labeled collagen type I)
T3 sequence (P03956 100-469): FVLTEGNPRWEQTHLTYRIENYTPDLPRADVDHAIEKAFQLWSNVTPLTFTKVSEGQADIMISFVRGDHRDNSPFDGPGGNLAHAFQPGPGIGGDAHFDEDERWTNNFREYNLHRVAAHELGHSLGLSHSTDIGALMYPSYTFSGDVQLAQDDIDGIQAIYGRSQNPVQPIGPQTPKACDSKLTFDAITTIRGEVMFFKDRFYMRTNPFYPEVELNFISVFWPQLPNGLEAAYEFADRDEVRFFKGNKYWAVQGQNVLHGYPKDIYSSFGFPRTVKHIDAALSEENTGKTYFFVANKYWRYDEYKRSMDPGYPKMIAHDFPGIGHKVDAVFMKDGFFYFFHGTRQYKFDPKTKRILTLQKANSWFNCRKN

[1] = Experimental Example 1, read-out: IC50 AG1
[2] = Experimental Example 3, read-out: IC50 MMP13
[3] = Experimental Example 2, read-out: IC50 MMP1
[4] = aggrecanase-1 inhibitory action, read-out: IC50 AG1 (Experimental Example 1)
[5] = Recombinant Human MMP-13, fluorescent substrate, 25° C. for 1 h, read-out: IC50 MMP13 (Experimental Example 3)
[6] = MMP-1 inhibitory action, FITC-labeled collagen type I, 37° C. for 3 hr, read-out: IC50 MMP1 (Experimental Example 2)

pIC50 (aggrecanase-1; [1])	pIC50 (Recombinant Human MMP-13; [2])	pIC50 (MMP-1; [3])	pIC50 (aggrecanase-1; [4])	pIC50 (Recombinant Human MMP-13; [5])	pIC50 (MMP-1; [6])	SMILES
> 6.00	> 6.00	≤ 5.00	–	–	–	CCNC(=O)NCC1(c2ccccc2)CC1(NS(=O)(=O)c1ccc(-c2ccc(Cl)cc2)s1)C(=O)O (stereo not drawn) [Example 2-396]
> 7.00	> 7.00	> 6.00	–	–	–	CC1[C@](C)(c2ccccc2)[C@]1(NS(=O)(=O)c1ccc(-c2cc(C(F)(F)F)on2)s1)C(=O)O (stereo partly drawn) [Example 2-623]
> 7.00	> 6.00	≤ 6.00	–	–	–	O=C(O)CSCC1(c2ccccc2)CC1(NS(=O)(=O)c1ccc(-c2ccc(Cl)cc2)s1)C(=O)O (stereo not drawn) [Example 2-358]
–	–	–	> 7.00	> 7.00	≤ 6.00	O=C(O)C1(NS(=O)(=O)c2ccc(-c3ccc(Cl)cc3)s2)CC1c1cccc(NS(=O)(=O)C(F)(F)F)c1 (stereo not drawn) [Example 1-132]
–	–	–	> 6.00	> 6.00	≤ 6.00	O=C(O)C1(NS(=O)(=O)c2ccc(-c3cc(C(F)(F)F)on3)s2)CC1c1ccccc1CCO (stereo not drawn) [Example 2-240]
> 7.00	> 7.00	> 7.00	–	–	–	C=C(Cl)c1cnn(-c2ccc(S(=O)(=O)N[C@@]3(C(=O)O)C(C)[C@@H]3c3ccccc3)s2)c1 (stereo partly drawn) [Example 2-545]
–	–	–	≤ 6.00	≤ 6.00	≤ 5.00	Cc1nc(-c2ccc(S(=O)(=O)N[C@@]3(C(=O)O)C[C@@H]3c3ccccc3)s2)cs1 [Example 2-50]
–	–	–	> 7.00	> 7.00	≤ 6.00	COCCN(C)C(=O)c1cccc(C2CC2(NS(=O)(=O)c2ccc(-c3ccc(Cl)cc3)s2)C(=O)O)c1 (stereo not drawn) [Example 2-69]
≤ 6.00	≤ 6.00	≤ 5.00	–	–	–	CCN(CC)CC1(c2ccccc2)CC1(NS(=O)(=O)c1ccc(-c2cc(C(F)(F)F)on2)s1)C(=O)O (stereo not drawn) [Example 2-343]
–	–	–	> 7.00	> 7.00	≤ 6.00	O=C(OCCc1ccccc1C1CC1(NS(=O)(=O)c1ccc(-c2cc(C(F)(F)F)on2)s1)C(=O)O)N1CCOCC1 (stereo not drawn) [Example 2-242]
–	–	–	≤ 5.00	≤ 5.00	≤ 5.00	O=C(O)C1(NS(=O)(=O)N2CCN(Cc3ccccc3)CC2)CC1c1ccccc1 (stereo not drawn) [Example 2-158]
> 7.00	> 7.00	> 6.00	–	–	–	CC1[C@H](c2ccccc2)[C@]1(NS(=O)(=O)c1ccc(-c2ccc(Cl)c(CO)c2)s1)C(=O)O (stereo partly drawn) [Example 2-565]
≤ 6.00	> 6.00	≤ 6.00	–	–	–	CC1C(c2ccccc2)C1(NS(=O)(=O)c1ccc(-c2cccc(CN3CCOCC3)c2)s1)C(=O)O (stereo not drawn) [Example 2-540]
–	–	–	> 7.00	> 7.00	≤ 6.00	O=C(OCCCc1ccccc1C1CC1(NS(=O)(=O)c1ccc(-c2cc(C(F)(F)F)on2)s1)C(=O)O)N1CC[C@@H](O)C1 (stereo partly drawn) [Example 2-255]
≤ 6.00	≤ 5.00	≤ 5.00	–	–	–	Cc1nnc(N2CCN(S(=O)(=O)N[C@@]3(C(=O)O)C(C)[C@@H]3c3ccccc3)CC2)s1 (stereo partly drawn) [Example 2-465]
> 6.00	> 6.00	≤ 6.00	–	–	–	COCC1(c2ccccc2)CC1(NS(=O)(=O)c1ccc(-c2ccc(Cl)cc2)s1)C(=O)O (stereo not drawn) [Example 2-386]
> 6.00	> 6.00	≤ 5.00	–	–	–	O=C(O)C1(NS(=O)(=O)c2ccc(-c3cc(C(F)(F)F)on3)s2)CC1c1cc(CCO)on1 (stereo not drawn) [Example 2-315]
–	–	–	≤ 5.00	≤ 5.00	≤ 5.00	O=C(O)C1(NS(=O)(=O)N2CCC(Oc3ccc(Cl)cc3)CC2)CC1c1ccccc1 (stereo not drawn) [Example 2-128]
–	–	–	> 7.00	> 6.00	≤ 6.00	O=C(O)C1(NS(=O)(=O)c2ccc(-c3ccc(Cl)cc3)s2)CC1c1ccccc1OCCO (stereo not drawn) [Example 1-138]
–	–	–	> 7.00	> 7.00	≤ 6.00	O=C(O)c1ccccc1C1CC1(NS(=O)(=O)c1ccc(-c2ccc(Cl)cc2)s1)C(=O)O (stereo not drawn) [Example 2-196]
> 7.00	> 7.00	> 6.00	–	–	–	NC(=O)CCc1ccc([C@H]2C[C@@]2(NS(=O)(=O)c2ccc(-c3cc(C(F)(F)F)on3)s2)C(=O)O)cc1 [Example 2-278]
